Experimental data: patent US9012159B2, “Cell based screening assays for the triglyceride synthesis pathway” (Janssen Research & Development, LLC, priority 2009, dated 2015)

Legend:
[1] = tested on: HUH7 cells; assay: Stable isotope (13C18-oleic acid) labeling of triglyceride synthesis with LC-MS detection in HUH7 cells; assay type: cell-based, human; details: for levels of 13C18-triolein relative to those of the control: 10 μM compound, about 90 minutes with 13C18-oleic acid, % of control (FIG. 3)
Procedure: (§1) The 3T3-L1 mouse preadipocyte cells were maintained in Dulbecco's Modified Eagles Medium (DMEM) with 10% fetal bovine serum (FBS). Cells were seeded in 96-well plates. Two days post confluency, the medium was changed to induction medium with IBMX, insulin, and dexamethasone (Adipolysis kit, Cayman Chemical Company). Three days after induction, the medium was changed to insulin medium (Adipolysis kit, Cayman Chemical Company). Five days after induction, the medium was replaced with fresh insulin medium for 2 days. Human hepatoma cell line HUH7 was maintained in DMEM with 10% FBS, 4.5 g/L D-glucose. Rat hepatoma cell line FU5AH was maintained in Minimum Essential Medium Eagle (MEM) with 5% FBS. The hepatoma cells were plated in 96 well plates and used at 80% confluence. Human breast cancer cell line MCF7 cells were maintained in DMEM with 10% FBS, 4.5 g/L D-glucose. Human monocytic leukemia cell line THP-1 was maintained in RPMI medium with 10% FBS and used at 5×10^5 cells/ml.
The HUH7 cells or the differentiated 3T3-L1 cells were incubated with DMEM with 10% charcoal-stripped FBS (Gibco) in 5% CO2 at 37° C. for overnight. The FU5AH cells were incubated with MEM with 5% charcoal-stripped FBS in 5% CO2 at 37° C. for overnight. About 100 μl of 300 μM ^13C18-oleic acid (SIGMA) precomplexed with 0.5% fatty acid free BSA (SIGMA) were added to the cell suspension in 5% CO2 at 37° C. for 0, 30, 60, 120 and 180 minutes. Then the cells were washed once with phosphate buffered saline and extracted with 100 μl of isopropyl alcohol. After incubating at room temperature for 10 minutes, the extraction was transferred to a glass vial and detected for labeled lipid molecules using the LC-MS system.
The LC-MS detection was conducted with Agilent 1100 Liquid Chromatographic system (Agilent Technologies, Palo Alto, Calif.) interfaced with a Micromass triple-quadrupole Quattro Micro mass spectrophotometer (Waters, Milford, Mass.) through a Z-spray electrospray ion source (ESI). Separation of the metabolites was performed on an Eclipse XDB-C8 column (2.1×50 mm, particle size=3.5 μm). Mobile Phase A, 50 mM ammonium formate in isopropanol-water (3:7), and mobile phase B, 10 mM ammonium formate in isopropanol-water (9:1) were used for a gradient elution as following: 20-100% Mobile Phase B for 1 min, hold 100% Mobile Phase B for 4 min, return to 20% Mobile Phase B for 0.1 min, then post run time of 4.5 min. The flow rate was 0.5 ml/min. […]
(§2) For evaluating compounds which modulate activity of DGAT1 or DGAT2, HUH7 or 3T3-L1 cells were preincubated with about 0, 0.03, 0.1, 0.3, 1, 3, or 10 μM Compounds 1 or 2 for about 10 minutes at 37° C. in 100 μl serum free medium with 0.05% DMSO. […] After incubation at 37° C. for about 90 minutes, cells were extracted and detected as described in Example 2.

[2] = tested on: differentiated 3T3-L1 cells; assay: Stable isotope (13C18-oleic acid) labeling of triglyceride synthesis with LC-MS detection in differentiated 3T3-L1 cells; assay type: cell-based, mouse; details: differentiated 3T3-L1 cell line
Procedure: as §1, with “The hepatoma cells were plated in 96 well plates and used at 80% confluence. Human breast cancer cell line MCF7 cells were maintained in DMEM with 10% FBS, 4.5 g/L D-glucose. Human monocytic leukemia cell line THP-1 was maintained in RPMI medium with 10% FBS and used at 5×10^5 cells/ml.” left out
The HUH7 cells or the differentiated 3T3-L1 cells were incubated with DMEM with 10% charcoal-stripped FBS (Gibco) in 5% CO2 at 37° C. for overnight. […] After incubating at room temperature for 10 minutes, the extraction was transferred to a glass vial and detected for labeled lipid molecules using the LC-MS system. […]
as §2

[3] = tested on: MCF7 cells; assay: Stable isotope (13C18-oleic acid) labeling of triglyceride synthesis with LC-MS detection in MCF7 cells; assay type: cell-based, human; details: compound 0.1-10 μM (concentration of the result not stated), about 3 hours with 13C18-oleic acid, % of control (FIG. 6)
Procedure: as §1
The LC-MS detection was conducted with Agilent 1100 Liquid Chromatographic system (Agilent Technologies, Palo Alto, Calif.) interfaced with a Micromass triple-quadrupole Quattro Micro mass spectrophotometer (Waters, Milford, Mass.) through a Z-spray electrospray ion source (ESI). […]
Next, the effects of Compound 2 in MCF7 cells were evaluated. […]

Row | Compound | levels of 13C18-triolein relative to those of the control ([1]; HUH7 cell line) | levels of the newly synthesized 13C18-triolein in the presence of compound ([1]; HUH7 cell line, result in words) | 13C18-oleoyl-diglyceride level ([1]; HUH7 cells incubated with compound (FIG. 5), result in words) | levels of 13C18-triolein relative to those of the control ([2]; about 10 μM compound, about 90 minutes with 13C18-oleic acid, % of control (FIG. 4)) | levels of the newly synthesized 13C18-triolein in the presence of compound ([2]; result in words) | levels of 13C18-triolein relative to those of the control [3]
1 | COc1ccc(CC(=O)Nc2ccc(N3CCN(C(=O)Nc4c(Cl)cc(CN5CCCC5)cc4Cl)CC3)cc2)cc1 [Compound 1, N-[2,6-Dichloro-4-(pyrrolidin-1-ylmethyl)phenyl]-4-(4-{[(4-methoxyphenyl)acetyl]amino}phenyl)piperazine-1-carboxamide] | about 30% | reduced levels | transient increase | about 33% | reduced levels | 
2 | COC(=O)c1[nH]c(=S)n(C(c2ccc(Cl)c(Cl)c2)C2CCCCC2)c1C(=O)OC (stereo not shown) [Compound 2, dimethyl 1-[cyclohexyl(3,4-dichlorophenyl)methyl]-2-thioxo-2,3-dihydro-1H-imidazole-4,5-dicarboxylate] | about 75% |  |  |  |  | about 80%
